Columns and labels:
[1] = tested on: EYFP-expressing P. aeruginosa PAO1 pellicle biofilms; test: Determination of viable cells (CFU/mL) in pellicle biofilms; settings: for % survival relative to cells in the pre-treated biofilm / viable cell count as % of the cells in the untreated pellicle / % survival, combination treatment: 24 h; for viable cell count as % of the cells in the untreated pellicle: KM-5-25 40 μM, KM-5-66 20 μM; for relative compound activity (rank order): pellicles treated 24 h with 50 μM of each analog
Method: (§1) Pellicle biofilms of EYFP-expressing P. aeruginosa PAO1 or clinical isolates were grown in PI media supplemented with 20 μM Fe. Starter cultures were diluted to OD600=0.001 in 4 mL media, placed in 35×10 mm petri dishes and incubated statically at 30° C. for 48 hours. The pellicles were transferred onto circular (1.5 cm diameter) glass coverslips by gently allowing the surface of a coverslip to contact a pellicle. The pellicle-adhered coverslip was washed in PBS and then deposited on top of 1.5 mL of AB challenge media contained in a well of a 12-well microplate, with the pellicle exposed to the media. […] The coverslip-adhered pellicles were exposed to challenge media at 30° C. for 24 hours, changing the challenge media every 12 hours by transferring the pellicle-adhered coverslip to a new plate containing pre-warmed challenge media.
Pellicle biofilms were grown as described above. Planktonic and loosely attached cells were washed (3 times) by immersing the coverslip-adhered pellicles (biofilm facing up) into a well of a 12-well plate containing 3 mL of PBS, and incubating (5 min) with gentle rocking. To remove the pellicle from the coverslip, break the extracellular matrix and release cells from the biofilm, the coverslip-adhered pellicle was placed in a 50 mL conical tube containing a 2 mL suspension of zirconia beads (0.1 mm diameter, BioSpec Products), 10 mL PBS, 0.2 μg/mL alginate lyase and 0.2 μg/mL DNAse. The resultant mixture was incubated at room temperature for 3 min, followed by vigorous vortexing for 4 min. After sedimentation of the zirconia beads, a 100 μL aliquot was used for serial dilution and plating on PIA plates for subsequent enumeration of viable cells (CFU/mL).
To assess the efficacy of antibiotics and compounds with an approach complementary to imaging with CLSM, dispersing biofilm cells for subsequent enumeration of viable cells (CFU/mL) was resorted to. […] The biofilms were then harvested, and the cells dispersed into sterile PBS by vortexing in the presence of zirconia beads, prior to plating the cell suspensions for subsequent enumeration of CFU/mL. […] A characteristic of cells in the VBNC state is their inability to develop into colonies on routine culture media, even though the cells remain viable for long periods of time.^58-59 Evidence that bacterial cells can enter the VBNC has been obtained by several distinct methods,^59 one of which is the utilization of bacteria engineered to constitutively express bioluminescent proteins, and using the bioluminescence as a reporter of metabolic activity.

[2] = tested on: EYFP-expressing P. aeruginosa PAO1 pellicle biofilms; test: Pellicle biofilm assay (CLSM imaging, COMSTAT biomass); type: cell-based, Pseudomonas aeruginosa; settings: 2-day old pellicles, 24 h; KM-5-25 80 μM, KM-5-66 50 μM (about 1.2× the IC50)
Method: as §1
Excess fluorescent dye was washed with PBS, the coverslip was mounted on a glass slide using 5 μL of SlowFade (Invitrogen, Carlsbad, CA) and the edges sealed with fingernail polish. CLSM image stacks (z-step size of 0.3 μm) were acquired with the aid of a Leica TCS SP8 microscope, as described above. Quantitative analysis was performed by determination of pellicle biomass using COMSTAT^54 and the Otsu method of automatic thresholding.^85
To expand the observations made with flow cell biofilms into a second biofilm model, the susceptibility of biofilms grown at the air-liquid interface (pellicles) was also studied.^56-57 Pellicle biofilms (henceforth pellicles) are an attractive alternative platform to study biofilms because pellicles are amenable to imaging by CLSM and to harvesting, which can be desirable for additional biofilm analysis.^26 To determine the susceptibility of pellicles to antibiotics or inhibitors of the BfrB-Bfd complex, 2-day old pellicles of EYFP-expressing P. aeruginosa cells were cultured in PI media supplemented with 20 μM Fe. The pellicles were transferred onto glass coverslips by allowing the surface of the coverslip to contact a pellicle.

[3] = tested on: EYFP-expressing P. aeruginosa PAO1 biofilms; test: Flow cell biofilm assay (CLSM imaging, COMSTAT biomass); type: cell-based, Pseudomonas aeruginosa; settings: 3-day old biofilms, 24 h; KM-5-25 40 and 80 μM, KM-5-66 15, 30 and 50 μM
Method: ACS Infect. Dis. […] The experimental shear stress was 0.14-dyn/cm^2 (shear rate=14 s^−1, pressure=7.1 mbar, flow rate=0.4 mL/min) and the switch time was set to 540 s. […] During biofilm growth and challenge with antibacterial, the culture medium in the reservoirs was removed every 12 hours and replaced with fresh pre-warmed medium. […] The biofilms were imaged with the aid of a Leica TCS SP8 confocal microscope (Leica Microsystems, Germany) using a HC PL apo CS2 63×/1.4 oil objective. […] Image stacks were acquired with a z-step size of 0.3 μm at randomly chosen positions. The Leica Application Suite X (LAS-X) software was used for image stack processing.^54 Quantitative analysis of biofilm biomass was performed using the COMSTAT computer program^54 and the Otsu method of automatic thresholding.^85
The treated biofilms were counterstained with the cell impermeable fluorescent nucleic acid dye Sytox Red and then imaged with the aid of confocal laser scanning microscopy (CLSM).

[4] = 0.6× the IC50 (KM-5-25 40 μM; KM-5-66 30 μM)
[5] = 1.2× the IC50 (KM-5-25 80 μM; KM-5-66 50 μM)
[6] = analog at 1.2× the IC50 combined with colistin at 25× the MIC
[7] = analog at 1.2× the IC50 combined with colistin at 25× the MIC (20 μM)
[8] = analog at 1.2× the IC50 combined with colistin at 50× the MIC
[9] = analog at 1.2× the IC50 combined with colistin at 50× the MIC (40 μM)
[10] = analog at 1.2× the IC50 combined with tobramycin at 25× the MIC
[11] = analog at 1.2× the IC50 combined with tobramycin at 50× the MIC

Row | Structure (SMILES) | % survival relative to cells in the pre-treated biofilm ([1]; 0.3× the IC50 (KM-5-66 15 μM)) | % survival relative to cells in the pre-treated biofilm [1, 4] | % survival relative to cells in the pre-treated biofilm [1, 5] | viable cell count as % of the cells in the untreated pellicle [1] | log reduction of viable cells relative to colistin alone [1, 6] | % survival, combination treatment [1, 7] | log reduction of viable cells relative to colistin alone [1, 8] | % survival, combination treatment [1, 9] | log reduction of viable cells relative to tobramycin alone [1, 10] | % survival, combination treatment [1, 10] | log reduction of viable cells relative to tobramycin alone [1, 11] | % survival, combination treatment [1, 11] | relative compound activity (rank order) [1] | cells in the pellicle treated (killed), COMSTAT [2] | killing of flow cell biofilm cells (CLSM images) [3]
1 | O=C1NC(=O)c2c(NCCCc3cc(O)cc(Cl)c3)cccc21 [KM-5-66] | approximately 57% | ~21% | ~15% | 37% | approximately 1.7 log | ~0.3% | ~1.9 log | ~0.02% | approximately 1.5 log | 5% | ~2 log | 1% | KM-5-66>KM-5-25>16>11 | ~85% | concentration dependent manner
2 | O=C1NC(=O)c2c(NCc3cc(Cl)ccc3O)cccc21 [KM-5-25] |  | ~38% | ~25% | 42% | ~1 log | ~1% | ~0.7 log | ~0.5% | approximately 2.5 log | ~0.5% | ~4.7 log | ~0.003% | KM-5-66>KM-5-25>16>11 | ~85% | concentration dependent manner
